Where two headings read alike, the source gives them in different places.
How the values were obtained:
[1] = in vivo
[2] = system: Ehrlich ascites carcinoma; experiment: effect on Ehrlich ascites carcinoma; type: in vivo, outbred Swiss mice; settings: for Mean duration of life expressed in % of treated*/control: second part of table, maximum 400%
Protocol: (§1) Transplantation was carried out into outbred Swiss mice at a level of 5×10^6 ascites tumor cells. Administration of RGH-4451 was started 24 hours after transplantation.

[3] = system: S 180 sc. carcinoma; experiment: effect on S 180 sc. carcinoma; type: in vivo, Swiss mice; settings: even at doses as high as 16 mg/kg i.p. daily
Protocol: S 180 sc. tumor tissues were transplanted into Swiss mice subcutaneously. Treatment was started 24 hours after transplantation. RGH-4451 was administered once a day in a dose of 2, 4, 8 and 16 mg./kg., respectively intraperitoneally. The tumor growth inhibition was evaluated on the 11th day on the basis of the weight of tumors. The change of the weight of spleen was also monitored.

[4] = acute toxicity on mice (LD50, i.p.); type: in vivo
Protocol: The acute toxicity of RGH-4451 was tested on mice.
The lethal dose killed the animals on the 2nd to 5th day.

[5] = overall tumor-growth inhibition and prolongation of life (summary of the tests); type: in vivo
Protocol: From the tests described hereinabove it can be concluded that 1.0 to 10.0 mg./kg. daily doses or 20 mg./kg. single doses of RGH-4451 have a significant tumor-growth inhibition effect and prolong the duration of life.

[6] = system: P 388 leukemia; experiment: effect on P 388 leukemia tumors of mice; type: in vivo, BDF1 hybrid mice
Description: 10^6 P 388 leukemia cells were transplanted into BDF1 hybrid mice intraperitoneally. Administration of RGH-4451 was started the day following the transplantation.

[7] = system: NK/Ly ascites lymphoma; experiment: effect on NK/Ly ascites lymphoma; type: in vivo, outbred Swiss mice
Protocol: Tests were carried out analogously with the Ehrlich ascites test.
as §1

[8] = system: Guerin sc. carcinoma; experiment: effect on Guerin sc. carcinoma; type: in vivo, Wistar rats; settings: for Mortality until the 22nd day/number of animals / Inhibition / Weight of tumor, treated: six subsequent days; for Inhibition / Weight of tumor, treated: 22nd day
Protocol: Tumors were transplanted into Wistar rats subcutaneously. Administration of RGH-4451 was started on the day following the transplantation and the compound was administered six subsequent days intraperitoneally. The inhibition of tumor growth was evaluated on the 22nd day.

[9] = therapeutic effect, MTD/min eff. D; settings: in vivo
[10] = system: P 388 tumor cells; experiment: inhibition of tumor growth in tissue culture, P 388; type: cell-based, mice; settings: for inhibition at 0.1 µg/mL: Mus musculus, P388
Protocol: The inhibition of tumor growth was initially studied in a tissue culture. A 20 mg./ml. solution of RGH-4451 in a Fischer medium was prepared and subsequently diluted to the desired concentration. The number of cells in the P 388 cultures was determined 24 and 48 hours after treatment.
The inhibition was 43% after 24 hours and 89% after 48 hours. In in vitro tests the compound was 100-times less toxic than vincristine and 4-times less toxic than N-desmethyl-N-formyl-leurosine.

[11] = paralytic symptoms at sublethal doses; type: in vivo; settings: even at sublethal doses; by contrast with vincristine
[12] = animals; cited from earlier work
[13] = human therapy; Rohn, R. et al.; cited from earlier work
[14] = administration of vincristine; cited from earlier work
[15] = 3.2 mg/kg i.p., 9 treatments, every day
[16] = 3.2 mg/kg i.p., 9 treatments, every day, control 12.3 days
[17] = 5.0 mg/kg i.p., 9 treatments, every day
[18] = 5.0 mg/kg i.p., 9 treatments, every day, control 13.2 days
[19] = 6.4 mg/kg i.p., 9 treatments, every day
[20] = 6.4 mg/kg i.p., 9 treatments, every day, control 12.3 days
[21] = 10 mg/kg i.p., 5 treatments, every second day
[22] = 10 mg/kg i.p., 5 treatments, every second day, control 10.5 days
[23] = 20 mg/kg i.p., 1 treatment, control 10.5 days
[24] = 20 mg/kg i.p., 6 treatments, every day
[25] = 20 mg/kg i.p., 6 treatments, every day, control 13.2 days
[26] = 2.0 mg/kg i.p., 9 treatments, every day
[27] = 4.0 mg/kg i.p., 9 treatments, every day
[28] = 6.0 mg/kg i.p., 9 treatments, every day

Compound: CCC12CN3CCc4c([nH]c5ccccc45)C(C(=O)OC)(c4cc5c(cc4OC)N(C=O)C4C(O)(C(=O)OC)C(OC(C)=O)C6(CC)C=CCN7CCC54C76)CC(C3)C1O2 (centres unmarked) [N-desmethyl-N-formyl-leurosine, reference compound]
- MTD/min eff. D [1]: 4
- effect of a large single dose on the duration of life [2]: did not increase the duration of life

Compound: CCOCN1c2cc(OC)c(C3(C(=O)OC)CC4CN(CCc5c3[nH]c3ccccc53)CC(O)(CC)C4)cc2C23CCN4CC=CC(CC)(C(OC(C)=O)C(O)(C(=O)OC)C12)C43 (centres unmarked) [RGH-4451]
- decrease in the weight of spleen [3]: no substantial decrease in the weight of spleen
- LD50 of RGH-4451 as multiple of that of N-desmethyl-N-formyl-leurosine ([4]; i.p.): 2.5 times
- LD50 of RGH-4451 as multiple of that of vinblastine ([4]; i.p.): about 10 times
- LD50 of RGH-4451 as multiple of that of vincristine ([4]; i.p.): 17 fold
- paralytic symptoms accompanying death ([4]; lethal dose): not accompanied by paralytic symptoms
- LD50 ([4]; mouse, in vivo, ip): 70 mg/kg
- crippling of surviving animals ([4]; survivors, in contrast with vincristine): not crippled even temporarily
- single dose with a significant tumor-growth inhibition effect and prolongation of life [5]: 20 mg/kg
- Mean duration of life expressed in % of treated/control [6, 15]: 181%
- Mean duration of life, treated [6, 16]: 22.3 days
- Mean duration of life expressed in % of treated/control [6, 17]: 163%
- Mean duration of life, treated [6, 18]: 21.5 days
- Mean duration of life expressed in % of treated/control [6, 19]: 166%
- Mean duration of life, treated [6, 20]: 20.5 days
- Mean duration of life expressed in % of treated/control [6, 21]: 208%
- Mean duration of life, treated [6, 22]: 21.8 days
- Mean duration of life expressed in % of treated/control ([6]; 20 mg/kg i.p., 1 treatment): 185%
- Mean duration of life, treated [6, 23]: 19.4 days
- Mean duration of life expressed in % of treated/control [6, 24]: 64%
- Mean duration of life, treated [6, 25]: 8.5 days
- Mean duration of life expressed in % of treated/control [7, 15]: 181%
- Mean duration of life, treated [7, 16]: 22.3 days
- Mean duration of life expressed in % of treated/control [7, 17]: 163%
- Mean duration of life, treated [7, 18]: 21.5 days
- Mean duration of life expressed in % of treated/control [7, 19]: 166%
- Mean duration of life, treated [7, 20]: 20.5 days
- Mean duration of life expressed in % of treated/control [7, 21]: 208%
- Mean duration of life, treated [7, 22]: 21.8 days
- tolerability of the large dose given every day (in words) ([7]; 20 mg/kg every day, cannot be administered due to its toxicity): cannot be administered every
- Mean duration of life expressed in % of treated/control ([7]; 20 mg/kg i.p., 1 treatment): 185%
- Mean duration of life, treated [7, 23]: 19.4 days
- Mean duration of life expressed in % of treated/control [7, 24]: 64%
- Mean duration of life, treated [7, 25]: 8.5 days
- duration of life of the tumorous animals (in words) ([7]; 3.2 to 6.4 mg/kg doses every day): considerably been prolonged
- effect on duration of life (in words) ([7]; single 20 mg/kg dose): also effective
- Mortality until the 22nd day/number of animals ([8]; 2.0 mg/kg i.p.): 0/6
- Inhibition ([8]; 2.0 mg/kg i.p.): 43
- Weight of tumor, treated ([8]; 2.0 mg/kg i.p., control 18.9): 10.7
- Mortality until the 22nd day/number of animals ([8]; 6.0 mg/kg i.p.): 0/6
- Inhibition ([8]; 6.0 mg/kg i.p.): 81
- Weight of tumor, treated ([8]; 6.0 mg/kg i.p., control 44.9): 8.69
- Mortality until the 22nd day/number of animals ([8]; 10.0 mg/kg i.p.): 0/6
- Inhibition ([8]; 10.0 mg/kg i.p.): 68
- Weight of tumor, treated ([8]; 10.0 mg/kg i.p., control 44.9): 14.64
- Mortality until the 22nd day/number of animals ([8]; 14.0 mg/kg i.p.): 5/6
- growth of Guerin carcinoma (in words) ([8]; 2 to 10 mg/kg i.p. doses): strongly inhibited
- MTD/min eff. D [9]: 10
- growth of P 388 tumor cells (in words) ([10]; 10^-1 μg./ml.): considerably inhibited
- inhibition at 0.1 µg/mL ([10]; 10^-1 μg./ml., after 24 hours): 43%
- inhibition at 0.1 µg/mL ([10]; 10^-1 μg./ml., after 48 hours): 89%
- in vitro toxicity, times less toxic than N-desmethyl-N-formyl-leurosine ([10]; in vitro, less toxic than N-desmethyl-N-formyl-leurosine): 4 times
- in vitro toxicity, times less toxic than vincristine ([10]; in vitro, less toxic than vincristine): 100 times
- paralytic symptoms [11]: entirely lacking
- Mean duration of life expressed in % of treated/control ([2]; 1.0 mg/kg i.p., 9 treatments, every day): 15.4%
- Mean duration of life, treated ([2]; 1.0 mg/kg i.p., 9 treatments, every day, control 15.4 days): 54.2 days
- On the 65th day alive [2, 26]: 9/10
- On the 65th day tumor-free [2, 26]: 6/10
- Mean duration of life, treated ([2]; 2.0 mg/kg i.p., 9 treatments, every day, control 16.4 days, first part of table): 43.0 days
- Mean duration of life, treated ([2]; 2.0 mg/kg i.p., 9 treatments, every day, control 16.4 days, second part of table (65th day)): 64.1 days
- Mean duration of life expressed in % of treated/control ([2]; 2.0 mg/kg i.p., 9 treatments, every day, first part of table): 261%
- Mean duration of life expressed in % of treated*/control [2, 26]: 392%
- On the 65th day alive [2, 27]: 8/10
- On the 65th day tumor-free [2, 27]: 7/10
- Mean duration of life, treated ([2]; 4.0 mg/kg i.p., 9 treatments, every day, control 16.4 days, first part of table): 36.4 days
- Mean duration of life, treated ([2]; 4.0 mg/kg i.p., 9 treatments, every day, control 16.4 days, second part of table (65th day)): 62.9 days
- Mean duration of life expressed in % of treated/control ([2]; 4.0 mg/kg i.p., 9 treatments, every day, first part of table): 222%
- Mean duration of life expressed in % of treated*/control [2, 27]: 384%
- On the 65th day alive [2, 28]: 8/10
- On the 65th day tumor-free [2, 28]: 4/10
- Mean duration of life, treated ([2]; 6.0 mg/kg i.p., 9 treatments, every day, control 15.9 days, first part of table): 48.2 days
- Mean duration of life, treated ([2]; 6.0 mg/kg i.p., 9 treatments, every day, control 16.7 days, second part of table (65th day)): 65.8 days
- Mean duration of life expressed in % of treated/control ([2]; 6.0 mg/kg i.p., 9 treatments, every day, first part of table): 303%
- Mean duration of life expressed in % of treated*/control [2, 28]: 394%
- On the 65th day alive ([2]; 20 mg/kg i.p., 1 treatment): 8/10
- On the 65th day tumor-free ([2]; 20 mg/kg i.p., 1 treatment): 3/10
- Mean duration of life, treated ([2]; 20 mg/kg i.p., 1 treatment, control 16.7 days, second part of table (65th day)): 65.5 days
- Mean duration of life expressed in % of treated*/control ([2]; 20 mg/kg i.p., 1 treatment): 392%
- antitumor effect (in words) ([2]; 2 to 6 mg/kg once a day): remarkable antitumor effect
- proportion of treated animals tumor-free on the 65th day (in words) ([2]; 2 to 6 mg/kg once a day): a great part of the treated animals is tumor-free on the 65th day

Compound: CC[C@]12CN3CCc4c([nH]c5ccccc45)[C@@](C(=O)OC)(c4cc5c(cc4OC)N(C)[C@H]4[C@@](O)(C(=O)OC)[C@H](OC(C)=O)[C@]6(CC)C=CCN7CC[C@]54[C@@H]76)C[C@H](C3)[C@H]1O2 [leurosine]
- antitumor activity [12]: antitumor activity of leurosine has been proved on animals
- toxicity on the hematopoietic organs [13]: unreasonably high toxicity on the hematopoietic organs

Compound: CC[C@]1(O)C[C@H]2CN(CCc3c([nH]c4ccccc34)[C@@](C(=O)OC)(c3cc4c(cc3OC)N(C=O)[C@H]3[C@@](O)(C(=O)OC)[C@H](OC(C)=O)[C@]5(CC)C=CCN6CC[C@]43[C@@H]65)C2)C1 [vincristine, N-desmethyl-N-formylvinblastine]
- MTD/min eff. D [1]: 6
- toxic side effects [14]: paralytic symptoms due to neurotoxicity
- effect of a large single dose on the duration of life [2]: did not increase the duration of life

— patent publication US4298525A, “Bis-indole-alkaloid” (Richter Gedeon Vegyeszeti Gyar RT, priority 1979, dated 1981)
